These results are taken from patent US12606568B2, “SMARCA degraders and uses thereof” (Kymera Therapeutics, Inc., priority 2020, dated 2026).

The target in the experiment is SMARCA2 (Homo sapiens, UniProt P51531). The experiment is described as follows: SMARCA2 Western blot MV4-11 degradation. To be noted: for Dmax: MV4-11, MV4-11 cells, read-out: SMARCA2 MSD MV411 degradation 24 h: average Dmax %; for Dmax / DC50: 24 h; for DC50 / SMARCA2 MSD MV411 degradation 24 h: average Dmax %: MV4-11 cells; for DC50: read-out: SMARCA2 MSD MV411 degradation 24 h: Mean external-Abs DC50. Set-up: SMARCA2 and SMARCA4 protein degradation in MV4-11 cells; endogenous in cells; host or cells: MV4-11. Type of experiment: cell-based. Here is the method: Example 54. SMARCA2 and SMARCA 4 Western Blot MV4-11 Degradation
Cells were seeded into 6-well plates (MV4-11: 4×10^6 cells/well/1 ml) and 1 ml of 2× compound solution was added into the well to make the final concentration and the plates were mixed well and incubated for 24 hours (No cytotoxicity was observed). The cell were collected with media and spun at 3000 rpm for 5 minutes. The supernatant was aspirated and the well and the cells were washed with cold PBS once and combined for centrifugation again; the supernatant aspirated again. 200 ul pre-chilled RIPA lysis buffer (Boston BioProducts BP-115D) with protease/phosphatase inhibitor (Roche 05892791001/Roche 04906837001) was directly added into the tube to lyze the cells for 20 minutes on ice. The cell lysate were collected into EP tubes and spun at 13000 rpm for 20 minutes and 72 ul supernatant was transferred to a fresh EP tube containing 18 ul of 5× loading buffer (Beyotime Bio P0015) to make the loading samples. The samples were heated to 100° C. for 10 minutes and cooled to RT and microcentrifuged. 20 ul of samples were loaded onto SDS-PAGE gel (Novex, WG1402BOX) and the gel was run at 80 V for 20 minutes and 120 V for 1.5 hours. The samples were electrotransfer to a NC membrane using wet-transfer method with 250 mA for 2.5 hours. The membrane was blocked with LICOR blocking buffer (LI-COR, 927-50000) for 1 hour. The membrane was washed three times with TBST (CST #9997S), 5 minutes each. Incubation was performed with primary antibody prepared in blocking buffer with 0.1% Tween-20 (Solarbio, P8220) at 4° C. overnight (Anti-SMARCA2/BRM antibody (ab15597) 1:500; Anti-BRG1 antibody [EPR3912] (ab108318) 1:1000; Rabbit anti-Baf180 antibody [EPR15860] (Abcam, ab196022) 1:1000; mouse anti-beta-Actin (8H10D10) (CST #3700) 1:10000). The membrane was washed three times with TBST, 5 minutes each. Incubation with secondary antibody was performed for 1 hour at RT (anti-rabbit IgG (Licor, 926-32211) 1:5000; anti-mouse IgG (LI-COR, 926-68070) 1:5000). The membrane was washed three times with TBST, 5 minutes each and lastly the LiCOR was read.
The letter codes for SMARCA degradation potency (DC50) include: A (<100 nM), B (100-500 nM), C (501-1000 nM), and D (>1000 nM). The letter codes for the percentage of SMARCA degradation after 24 hours (Dmax %) include: A (>90% degradation), B (>70-90% degradation), C (50-70% degradation), and D (<50% degradation).
(A western blot detects proteins with antibodies after separation by electrophoresis.)

Chain of SMARCA2 (P51531 whole entry): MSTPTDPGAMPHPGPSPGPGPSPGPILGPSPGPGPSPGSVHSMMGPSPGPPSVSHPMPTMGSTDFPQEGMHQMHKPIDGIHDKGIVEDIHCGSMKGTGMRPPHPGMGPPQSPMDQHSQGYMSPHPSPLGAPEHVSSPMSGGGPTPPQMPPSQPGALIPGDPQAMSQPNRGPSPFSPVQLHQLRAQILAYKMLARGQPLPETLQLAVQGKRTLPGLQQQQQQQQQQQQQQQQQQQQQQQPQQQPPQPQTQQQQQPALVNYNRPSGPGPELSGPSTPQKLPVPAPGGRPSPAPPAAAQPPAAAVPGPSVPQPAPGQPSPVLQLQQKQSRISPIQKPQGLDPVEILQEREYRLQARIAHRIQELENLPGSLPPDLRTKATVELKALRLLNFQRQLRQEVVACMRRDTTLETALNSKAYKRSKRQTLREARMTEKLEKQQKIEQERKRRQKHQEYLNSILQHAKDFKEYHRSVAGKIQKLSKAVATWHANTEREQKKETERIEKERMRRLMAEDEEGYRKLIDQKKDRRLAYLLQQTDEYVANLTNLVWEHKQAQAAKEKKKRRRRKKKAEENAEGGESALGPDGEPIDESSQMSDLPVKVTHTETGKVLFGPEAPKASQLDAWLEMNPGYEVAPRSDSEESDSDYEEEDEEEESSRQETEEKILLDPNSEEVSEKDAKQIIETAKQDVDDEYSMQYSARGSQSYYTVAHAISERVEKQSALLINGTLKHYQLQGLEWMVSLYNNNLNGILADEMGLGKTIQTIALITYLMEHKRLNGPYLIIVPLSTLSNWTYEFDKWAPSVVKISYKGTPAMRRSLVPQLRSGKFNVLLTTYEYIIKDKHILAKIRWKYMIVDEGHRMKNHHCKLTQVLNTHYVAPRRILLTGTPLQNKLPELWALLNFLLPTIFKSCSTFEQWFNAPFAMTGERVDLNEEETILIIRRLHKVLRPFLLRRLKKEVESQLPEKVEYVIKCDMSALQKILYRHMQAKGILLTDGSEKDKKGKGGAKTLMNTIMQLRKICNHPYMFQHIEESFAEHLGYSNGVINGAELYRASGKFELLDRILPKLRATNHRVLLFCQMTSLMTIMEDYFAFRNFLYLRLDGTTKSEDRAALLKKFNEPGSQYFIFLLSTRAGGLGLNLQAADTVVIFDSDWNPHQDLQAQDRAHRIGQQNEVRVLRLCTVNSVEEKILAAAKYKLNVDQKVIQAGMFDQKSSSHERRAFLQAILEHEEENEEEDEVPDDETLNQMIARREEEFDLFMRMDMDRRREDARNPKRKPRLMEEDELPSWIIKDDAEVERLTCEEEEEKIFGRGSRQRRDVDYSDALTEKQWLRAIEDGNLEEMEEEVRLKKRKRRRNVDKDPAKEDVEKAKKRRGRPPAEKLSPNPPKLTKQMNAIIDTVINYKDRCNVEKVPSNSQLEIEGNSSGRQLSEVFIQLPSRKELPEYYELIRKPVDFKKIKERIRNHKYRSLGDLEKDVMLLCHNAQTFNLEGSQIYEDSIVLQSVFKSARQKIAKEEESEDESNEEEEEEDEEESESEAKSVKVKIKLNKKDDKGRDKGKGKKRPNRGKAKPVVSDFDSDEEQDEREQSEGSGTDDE

As a reminder, the Dmax is the largest share of the target that was removed. One may read the DC50 as the concentration giving 50% degradation. In the case of `Cc1cc(C(C(=O)N2C[C@H](O)C[C@H]2C(=O)NCc2ccc(-c3scnc3C)cc2)C(C)CCN2CCC(c3cnc(N4C5CCC4CN(c4cc(-c6ccccc6O)nnc4N)C5)nc3)CC2)on1` (stereo partly drawn) [I-44, (2S,4R)-1-(5-(4-(2-(3-(3-amino-6-(2-hydroxyphenyl)pyridazin-4-yl)-3,8-diazabicyclo[3.2.1]octan-8-yl)pyrimidin-5-yl)piperidin-1-yl)-3-methyl-2-(3-methylisoxazol-5-yl)pentanoyl)-4-hydroxy-N-(4-(4-methylthiazol-5-yl)benzyl)pyrrolidine-2-carboxamide], the greatest degradation seen (Dmax) was 70 to 90% and the DC50 was less than 100 nM.

On to `Cc1ncsc1-c1ccc(CNC(=O)[C@@H]2C[C@@H](O)CN2C(=O)[C@@H](NC(=O)C2(F)CC2)C(C)(C)C)c(OCCCCN2CCC(c3cnc(N4C5CCC4CN(c4cc(-c6ccccc6O)nnc4N)C5)nc3)CC2)c1` [I-74], for which the Dmax is 70 to 90% and the DC50 is less than 100 nM.

Take `Cc1ncsc1-c1ccc(CNC(=O)[C@@H]2C[C@@H](O)CN2C(=O)[C@@H](NC(=O)CN2C3CCC2CN([C@H]2CC[C@@H](c4cnc(N5C6CCC5CN(c5cc(-c7ccccc7O)nnc5N)C6)nc4)CC2)C3)C(C)(C)C)cc1` [I-77, (2S,4R)-1-((2S)-2-(2-(3-((1s,4R)-4-(2-(3-(3-amino-6-(2-hydroxyphenyl)pyridazin-4-yl)-3,8-diazabicyclo[3.2.1]octan-8-yl)pyrimidin-5-yl)cyclohexyl)-3,8-diazabicyclo[3.2.1]octan-8-yl)acetamido)-3,3-dimethylbutanoyl)-4-hydroxy-N-(4-(4-methylthiazol-5-yl)benzyl)pyrrolidine-2-carboxamide]: the Dmax was in the range of 70 to 90% and the 50% degradation concentration (DC50) is less than 100 nM.

Turning to `Cc1ncsc1-c1ccc(CNC(=O)[C@@H]2C[C@@H](O)CN2C(=O)[C@@H](NC(=O)C2CC3(C2)CC(N2CCC(c4cnc(N5CCN(c6cc(-c7ccccc7O)nnc6N)CC5)nc4)CC2)C3)C(C)(C)C)cc1` (stereo partly drawn) [I-65, (2S,4R)-1-((S)-2-(6-(4-(2-(4-(3-amino-6-(2-hydroxyphenyl)pyridazin-4-yl)piperazin-1-yl)pyrimidin-5-yl)piperidin-1-yl)spiro[3.3]heptane-2-carboxamido)-3,3-dimethylbutanoyl)-4-hydroxy-N-(4-(4-methylthiazol-5-yl)benzyl)pyrrolidine-2-carboxamide], the greatest degradation seen (Dmax) was 50 to 70% and the DC50 is less than 100 nM.

On to `Cc1ncsc1-c1ccc(CNC(=O)[C@@H]2C[C@@H](O)CN2C(=O)[C@@H](c2cc(OCCCCN3CCC(c4cnc(N5C6CCC5CN(c5cc(-c7ccccc7O)nnc5N)C6)nc4)CC3)no2)C(C)C)cc1` [I-56], for which the “SMARCA2 MSD MV411 degradation 24 h: average Dmax %” value was “B (B (>70-90% degradation))” and the half-maximal degradation concentration (DC50) was less than 100 nM.

For `Cc1ncsc1-c1ccc(CNC(=O)[C@@H]2C[C@@H](O)CN2C(=O)[C@H](c2cc(OCCCCN3CCC(c4cnc(N5C6CCC5CN(c5cc(-c7ccccc7O)nnc5N)C6)nc4)CC3)no2)C(C)C)cc1` [I-57], the Dmax was more than 90% and the DC50 is less than 100 nM.

For the compound `Cc1cc(C(C(=O)N2C[C@H](O)C[C@H]2C(=O)NCc2ccc(-c3scnc3C)cc2)C(C)CCN2CCC(c3cnc(N4C5CCC4CN(c4cc(-c6ccccc6O)nnc4N)C5)nc3)CC2)on1` (single isomer, unassigned) [I-45], the Dmax was more than 90% and the half-maximal degradation concentration (DC50) is less than 100 nM.

`Cc1ncsc1-c1ccc(CNC(=O)[C@@H]2C[C@@H](O)CN2C(=O)[C@@H](NC(=O)C2(F)CC2)C(C)(C)C)c(OCCCCCCN2CCC(c3cnc(N4C5CCC4CN(c4cc(-c6ccccc6O)nnc4N)C5)nc3)CC2)c1` [I-75, (2S,4R)—N-(2-((6-(4-(2-(3-(3-amino-6-(2-hydroxyphenyl)pyridazin-4-yl)-3,8-diazabicyclo[3.2.1]octan-8-yl)pyrimidin-5-yl)piperidin-1-yl)hexyl)oxy)-4-(4-methylthiazol-5-yl)benzyl)-1-((S)-2-(1-fluorocyclopropanecarboxamido)-3,3-dimethylbutanoyl)-4-hydroxypyrrolidine-2-carboxamide]: the Dmax was 70 to 90% and the DC50 was less than 100 nM.

Take `Cc1ncsc1-c1ccc(CNC(=O)[C@@H]2C[C@@H](O)CN2C(=O)[C@@H](c2cc(N3CCC(N4CCC(c5cnc(N6C7CCC6CN(c6cc(-c8ccccc8O)nnc6N)C7)nc5)CC4)CC3)no2)C(C)C)cc1` [I-49, (2S,4R)-1-(2-(3-(4-(2-(3-(3-amino-6-(2-hydroxyphenyl)pyridazin-4-yl)-3,8-diazabicyclo[3.2.1]octan-8-yl)pyrimidin-5-yl)-[1,4′-bipiperidin]-1′-yl)isoxazol-5-yl)-3-methylbutanoyl)-4-hydroxy-N-(4-(4-methylthiazol-5-yl)benzyl)pyrrolidine-2-carboxamide]: the greatest degradation seen (Dmax) was more than 90% and the DC50 was less than 100 nM.

`Cc1ncsc1-c1ccc(CNC(=O)[C@@H]2C[C@@H](O)CN2C(=O)[C@@H](c2cc(N3CCC(CCN4CCC(c5cnc(N6C7CCC6CN(c6cc(-c8ccccc8O)nnc6N)C7)nc5)CC4)CC3)no2)C(C)C)cc1` [I-62, (2S,4R)-1-((2R)-2-(3-(4-(2-(4-(2-(3-(3-amino-6-(2-hydroxyphenyl)pyridazin-4-yl)-3,8-diazabicyclo[3.2.1]octan-8-yl)pyrimidin-5-yl)piperidin-1-yl)ethyl)piperidin-1-yl)isoxazol-5-yl)-3-methylbutanoyl)-4-hydroxy-N-(4-(4-methylthiazol-5-yl)benzyl)pyrrolidine-2-carboxamide]: the Dmax was 50 to 70% and the DC50 lay within 100 to 500 nM.

As to `Cc1cc(C(C(=O)N2C[C@H](O)C[C@H]2C(=O)NCc2ccc(-c3scnc3C)cc2)C(C)CCN2CCC(c3cnc(N4C5CCC4CN(c4cc(-c6ccccc6O)nnc4N)C5)nc3)CC2)on1` (single isomer, unassigned) [I-46], the “SMARCA2 MSD MV411 degradation 24 h: average Dmax %” value is “B (B (>70-90% degradation))” and the DC50 was less than 100 nM.

`Cc1ncsc1-c1ccc(CNC(=O)[C@@H]2C[C@@H](O)CN2C(=O)[C@H](c2cc(N3CCC(CCN4CCC(c5cnc(N6C7CCC6CN(c6cc(-c8ccccc8O)nnc6N)C7)nc5)CC4)CC3)no2)C(C)C)cc1` [I-63, (2S,4R)-1-((2S)-2-(3-(4-(2-(4-(2-(3-(3-amino-6-(2-hydroxyphenyl)pyridazin-4-yl)-3,8-diazabicyclo[3.2.1]octan-8-yl)pyrimidin-5-yl)piperidin-1-yl)ethyl)piperidin-1-yl)isoxazol-5-yl)-3-methylbutanoyl)-4-hydroxy-N-(4-(4-methylthiazol-5-yl)benzyl)pyrrolidine-2-carboxamide]: the Dmax was more than 90% and the DC50 was less than 100 nM.

Regarding `Cc1ncsc1-c1ccc(CNC(=O)[C@@H]2C[C@@H](O)CN2C(=O)[C@@H](NC(=O)C2(F)CC2)C(C)(C)C)c(OC2CCC(N3CCC(c4cnc(N5C6CC[C@@H]5CN(c5cc(-c7ccccc7O)nnc5N)C6)nc4)CC3)CC2)c1` (stereo partly drawn) [I-71, (2S,4R)—N-(2-(((1r,4S)-4-(4-(2-(3-(3-amino-6-(2-hydroxyphenyl)pyridazin-4-yl)-3,8-diazabicyclo[3.2.1]octan-8-yl)pyrimidin-5-yl)piperidin-1-yl)cyclohexyl)oxy)-4-(4-methylthiazol-5-yl)benzyl)-1-((S)-2-(1-fluorocyclopropanecarboxamido)-3,3-dimethylbutanoyl)-4-hydroxypyrrolidine-2-carboxamide], the “SMARCA2 MSD MV411 degradation 24 h: average Dmax %” value is listed as “B (B (>70-90% degradation))” and the DC50 is less than 100 nM.
